Test results from patent US8536202B2, “Triazole-substituted anthranilamides as pesticides” (Bayer Cropscience AG, priority 2010, dated 2013).
Where two headings read alike, the source gives them in different places.

Legend:
[1] = log P determination by HPLC on reversed-phase columns (EEC Directive 79/831 Annex V.A8); assay type: physicochemical; conditions: pH 2.7
Summary of the method: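 log P from reversed-phase LC-MS retention at pH 2.7, 0.1% formic acid water/acetonitrile gradient 10–95% acetonitrile. Calibrated against C3–C16 unbranched alkan-2-ones, interpolating linearly between adjacent alkanones.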

Boophilus microplus = Boophilus microplus test (BOOPMI injection); assay type: in vivo; conditions: Rhipicephalus microplus, 168 h, 20 μg/animal, after 7 days, read-out: activity in % (no fertile eggs laid)
Experimental: (§1) Solvent: dimethyl sulphoxide
An appropriate preparation of active compound is prepared by mixing 10 mg of active compound with 0.5 ml of solvent and diluting the concentrate with solvent to the desired concentration. The solution of active compound is injected into the abdomen (Boophilus microplus), and the animals are transferred to dishes and kept in a climatized room. Activity is assessed by deposition of fertile eggs.
After 7 days, the activity in % is assessed. Here, 100% means that none of the ticks has laid fertile eggs.

[2] = tested on: green peach aphid (Myzus persicae); assay: Myzus test (MYZUPE spray treatment), Use Example 4; assay type: in vivo; conditions: 144 h, 100 g/ha, after 6 days, read-out: activity in %
Summary of the method: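 Compound was formulated in acetone/dimethylformamide with alkylaryl polyglycol ether emulsifier and diluted in emulsifier-containing water. It was sprayed onto Chinese cabbage leaf discs infested with all stages of Myzus persicae. Mortality (%) was scored after 6 days, where 100% means all aphids killed.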

Lucilia cuprina larvae = assay: Lucilia cuprina test (LUCICU); assay type: in vivo; conditions: 48 h, read-out: kill in %
Experimental: as §1
(§2) An appropriate preparation of active compound is prepared by mixing 10 mg of active compound with 0.5 ml of dimethyl sulphoxide and diluting the concentrate with water to the desired concentration.
Vessels containing horse meat treated with the preparation of active compound at the desired concentration are populated with approximately 20 Lucilia cuprina larvae.
After 2 days, the kill in % is ascertained. Here, 100% means that all of the larvae have been killed; 0% means that no larvae have been killed.

[3] = tested on: larvae of the mustard beetle (Phaedon cochleariae); assay: Phaedon test (PHAECO spray treatment); assay type: in vivo; conditions: 168 h, 100 g/ha, after 7 days, read-out: activity in %
Summary of the method: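 Compound dissolved in acetone/dimethylformamide with alkylaryl polyglycol ether emulsifier, then diluted with emulsifier-containing water to test concentration for spray treatment of Phaedon cochleariae larvae. Activity scored after 7 days as % larvae killed (100% = all dead, 0% = none).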

[4] = tested on: caterpillars of the armyworm (Spodoptera frugiperda); assay: Spodoptera frugiperda test (SPODFR spray treatment); assay type: in vivo; conditions: 168 h, 100 g/ha, after 7 days, read-out: activity in %
Summary of the method: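 Maize leaf discs sprayed with compound diluted in emulsifier-containing water (acetone/DMF solvent, alkylaryl polyglycol ether emulsifier), dried, then infested with armyworm caterpillars. Kill scored after 7 days as % mortality, 100% = all caterpillars dead, 0% = none.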

adult Musca domestica = assay: Musca domestica test (MUSCDO); assay type: in vivo; conditions: 48 h, read-out: kill in %
Experimental: as §1
as §2, with “concentration. Vessels containing a sponge treated with the preparation of active compound at the desired concentration are populated with adult Musca domestica.” for “concentration.”
After 2 days, the kill in % is ascertained. Here, 100% means that all of the flies have been killed; 0% means that no flies have been killed.

chromatographic logP ([1]; reversed-phase C18 HPLC column, HPLC on reversed-phase columns (C 18), EEC Directive 79/831 Annex V.A8, read-out: logP) | SMILES | pest or weed control at 0.02 mg (Boophilus microplus) [%] | pest or weed control at 100 g/ha [2] [%] | pest or weed control at 100 ppm (Lucilia cuprina larvae; 100 ppm, after 2 days) [%] | pest or weed control at 100 g/ha [3] [%] | pest or weed control at 100 g/ha [4] [%] | chromatographic logP [1] | pest or weed control at 100 ppm (Lucilia cuprina larvae) [%] | pest or weed control at 100 ppm (adult Musca domestica) [%]
3.44 | Cc1cc(C#N)cc(C(=O)NC(C)(C)C)c1NC(=O)c1cc(Cn2cc(C(F)(F)F)nn2)nn1-c1ncccc1Br [Example 7] | 100 | 100 | 100 | 100 | 100 |  |  | 
 | CNC(=O)c1cc(Cl)cc(C)c1NC(=O)c1cc(Cn2nnc3cc(C(F)(F)F)ccc32)nn1-c1ncccc1Cl [Example 70] | 100 | 100 |  | 100 | 100 | 3.13 | 100 | 
 | CNC(=O)c1cc(C#N)cc(C)c1NC(=O)c1cc(Cn2ncc(C(F)(F)F)n2)nn1-c1ncccc1Cl [Example 124] | 100 | 100 |  | 100 | 100 | 2.68 | 100 | 80
 | Cc1cc(C#N)cc(C(=O)NC(C)C)c1NC(=O)c1cc(Cn2ncc(C(F)(F)F)n2)nn1-c1ncccc1Cl [Example 128] | 100 | 100 |  | 100 | 100 | 3.1 | 100 | 80
 | CNC(=O)c1cc(Cl)cc(C)c1NC(=O)c1cc(Cn2ncc(C(F)(F)F)n2)nn1-c1ncccc1Cl [Example 135] | 100 | 90 |  | 100 | 100 | 2.99 | 100 | 
 | Cc1cc(Cl)cc(C(=O)NC(C)C2CC2)c1NC(=O)c1cc(Cn2ncc(C(F)(F)F)n2)nn1-c1ncccc1Cl (centres unmarked) [Example 136] | 100 |  |  | 100 | 100 | 3.8 | 100 | 
 | CC(NC(=O)c1cc(Cl)cc(Cl)c1NC(=O)c1cc(Cn2ncc(C(F)(F)F)n2)nn1-c1ncccc1Cl)C1CC1 (centres unmarked) [Example 147] | 100 |  |  | 100 | 100 | 3.73 | 100 | 
 | CC(C)(C)NC(=O)c1cc(Cl)cc(Cl)c1NC(=O)c1cc(Cn2ncc(C(F)(F)F)n2)nn1-c1ncccc1Cl [Example 151] | 100 | 100 |  | 100 | 100 | 3.8 | 100 | 
 | CSC[C@H](C)NC(=O)c1cc(Cl)cc(Cl)c1NC(=O)c1cc(Cn2ncc(C(F)(F)F)n2)nn1-c1ncccc1Cl [Example 155] | 100 | 100 |  | 100 | 100 | 3.64 | 100 | 
 | Cc1cc(I)cc(C(=O)NC(C)(C)C)c1NC(=O)c1cc(Cn2ncc(C(F)(F)F)n2)nn1-c1ncccc1Cl [Example 162] | 100 |  |  | 100 | 100 | 4.11 | 100 | 
 | Cc1cc(Br)cc(C(=O)NC2CC2)c1NC(=O)c1cc(Cn2ncc(C(F)(F)F)n2)nn1-c1ncccc1Cl [Example 174] | 100 | 100 |  | 100 | 100 | 3.28 | 100 | 
